Data as given in patent publication US12144795B2, “Cannabidiol compositions having modified cannabinoid profiles” (priority 2018, dated 2024).

Test: Stability studies of CBD prepared via Protocol 3 (crude, pure, 2x recrystallized; 5° C., 25° C./60% RH, 40° C./75% RH)
Assay type: physicochemical

SMILES: C=C(C)[C@@H]1CCC(C)=C[C@H]1c1c(O)cc(CCCCC)cc1O [Pure CBD]
- Related substances by HPLC (low level): Δ9-Tetrahydrocannabinol (25° C./60% RH, 0 month): 26 ppm
- Water content in % w/w (25° C./60% RH, 0 month): <0.05%
- Appearance (25° C./60% RH, 1 month): Off-White Powder
- Assay by HPLC (25° C./60% RH, 1 month): 99.7%
- Each unspecified impurity: RRT~1.927 (25° C./60% RH, 1 month): RRT~1.927: 0.06%
- Related substances by HPLC (low level): Δ8-Tetrahydrocannabinol (25° C./60% RH, 1 month): 25 ppm
- Related substances by HPLC (low level): Δ9-Tetrahydrocannabinol (25° C./60% RH, 1 month): 21 ppm
- Related substances by HPLC: 4-Monobromo-CBD (25° C./60% RH, 1 month): <0.03% (ND)
- Related substances by HPLC: Olivetol (25° C./60% RH, 1 month): <0.03% (ND)
- Related substances by HPLC: Sum of impurities, ≥0.05% (25° C./60% RH, 1 month): 0.06%
- Related substances by HPLC: Δ8-Tetrahydrocannabinol (25° C./60% RH, 1 month): <0.02% (ND)
- Related substances by HPLC: Δ9-Tetrahydrocannabinol (25° C./60% RH, 1 month): <0.02% (ND)
- Appearance (25° C./60% RH, 2 months): Off-White Powder
- Assay by HPLC (25° C./60% RH, 2 months): 100.3%
- Each unspecified impurity: RRT~1.935 (25° C./60% RH, 2 months): RRT~1.935: 0.08%
- Related substances by HPLC (low level): Δ8-Tetrahydrocannabinol (25° C./60% RH, 2 months): 21 ppm
- Related substances by HPLC (low level): Δ9-Tetrahydrocannabinol (25° C./60% RH, 2 months): 14 ppm
- Related substances by HPLC: 4-Monobromo-CBD (25° C./60% RH, 2 months): <0.03% (ND)
- Related substances by HPLC: Olivetol (25° C./60% RH, 2 months): <0.03% (ND)
- Related substances by HPLC: Sum of impurities, ≥0.05% (25° C./60% RH, 2 months): 0.08%
- Related substances by HPLC: Δ8-Tetrahydrocannabinol (25° C./60% RH, 2 months): <0.02% (ND)
- Related substances by HPLC: Δ9-Tetrahydrocannabinol (25° C./60% RH, 2 months): <0.02% (ND)
- Appearance (25° C./60% RH, 3 months): Off-white
- Assay by HPLC (25° C./60% RH, 3 months): 98.5%
- Each unspecified impurity: RRT~1.982 (25° C./60% RH, 3 months): RRT~1.982: 0.03%
- Related substances by HPLC (low level): Δ8-Tetrahydrocannabinol (25° C./60% RH, 3 months): 36 ppm
- Related substances by HPLC (low level): Δ9-Tetrahydrocannabinol (25° C./60% RH, 3 months): <4 ppm (2 ppm)
- Related substances by HPLC: 4-Monobromo-CBD (25° C./60% RH, 3 months): <0.03% (ND)
- Related substances by HPLC: Olivetol (25° C./60% RH, 3 months): <0.03% (ND)
- Related substances by HPLC: Sum of impurities, ≥0.05% (25° C./60% RH, 3 months): <0.05%
- Related substances by HPLC: Δ8-Tetrahydrocannabinol (25° C./60% RH, 3 months): <0.02% (ND)
- Related substances by HPLC: Δ9-Tetrahydrocannabinol (25° C./60% RH, 3 months): <0.02% (ND)
- Related substances by HPLC (low level): Δ9-Tetrahydrocannabinol (40° C./75% RH, 0 month): 26 ppm
- Water content in % w/w (40° C./75% RH, 0 month): <0.05%
- Appearance (40° C./75% RH, 1 month): Off-White
- Assay by HPLC (40° C./75% RH, 1 month): 99.5%
- Each unspecified impurity: RRT~1.929 (40° C./75% RH, 1 month): 0.05%
- Related substances by HPLC (low level): Δ8-Tetrahydrocannabinol (40° C./75% RH, 1 month): 22 ppm
- Related substances by HPLC (low level): Δ9-Tetrahydrocannabinol (40° C./75% RH, 1 month): 14 ppm
- Related substances by HPLC: 4-Monobromo-CBD (40° C./75% RH, 1 month): <0.03% (ND)
- Related substances by HPLC: Olivetol (40° C./75% RH, 1 month): <0.03% (ND)
- Related substances by HPLC: Sum of impurities, ≥0.05% (40° C./75% RH, 1 month): 0.05%
- Related substances by HPLC: Δ8-Tetrahydrocannabinol (40° C./75% RH, 1 month): <0.02% (ND)
- Related substances by HPLC: Δ9-Tetrahydrocannabinol (40° C./75% RH, 1 month): <0.02% (ND)
- Appearance (40° C./75% RH, 2 months): Off-White
- Assay by HPLC (40° C./75% RH, 2 months): 100.2%
- Each unspecified impurity: RRT~1.932 (40° C./75% RH, 2 months): 0.07%
- Related substances by HPLC (low level): Δ8-Tetrahydrocannabinol (40° C./75% RH, 2 months): 20 ppm
- Related substances by HPLC (low level): Δ9-Tetrahydrocannabinol (40° C./75% RH, 2 months): 9 ppm
- Related substances by HPLC: 4-Monobromo-CBD (40° C./75% RH, 2 months): <0.03% (ND)
- Related substances by HPLC: Olivetol (40° C./75% RH, 2 months): <0.03% (ND)
- Related substances by HPLC: Sum of impurities, ≥0.05% (40° C./75% RH, 2 months): 0.07%
- Related substances by HPLC: Δ8-Tetrahydrocannabinol (40° C./75% RH, 2 months): <0.02% (ND)
- Related substances by HPLC: Δ9-Tetrahydrocannabinol (40° C./75% RH, 2 months): <0.02% (ND)
- Appearance (40° C./75% RH, 3 months): Off-white
- Assay by HPLC (40° C./75% RH, 3 months): 98.8%
- Each unspecified impurity: RRT~1.983 (40° C./75% RH, 3 months): 0.03%
- Related substances by HPLC (low level): Δ8-Tetrahydrocannabinol (40° C./75% RH, 3 months): 30 ppm
- Related substances by HPLC (low level): Δ9-Tetrahydrocannabinol (40° C./75% RH, 3 months): <4 ppm (ND)
- Related substances by HPLC: 4-Monobromo-CBD (40° C./75% RH, 3 months): <0.03% (ND)
- Related substances by HPLC: Olivetol (40° C./75% RH, 3 months): <0.03% (ND)
- Related substances by HPLC: Sum of impurities, ≥0.05% (40° C./75% RH, 3 months): <0.05%
- Related substances by HPLC: Δ8-Tetrahydrocannabinol (40° C./75% RH, 3 months): <0.02% (ND)
- Related substances by HPLC: Δ9-Tetrahydrocannabinol (40° C./75% RH, 3 months): <0.02% (ND)
- Appearance (40° C./75% RH, 5 months): Off-white
- Assay by HPLC (40° C./75% RH, 5 months): 99.9%
- Each unspecified impurity: RRT~1.918 (40° C./75% RH, 5 months): 0.04%
- Related substances by HPLC (low level): Δ8-Tetrahydrocannabinol (40° C./75% RH, 5 months): 36 ppm
- Related substances by HPLC (low level): Δ9-Tetrahydrocannabinol (40° C./75% RH, 5 months): 6 ppm
- Related substances by HPLC: 4-Monobromo-CBD (40° C./75% RH, 5 months): <0.03% (ND)
- Related substances by HPLC: Olivetol (40° C./75% RH, 5 months): <0.03% (ND)
- Related substances by HPLC: Sum of impurities, ≥0.05% (40° C./75% RH, 5 months): <0.05%
- Related substances by HPLC: Δ8-Tetrahydrocannabinol (40° C./75% RH, 5 months): <0.02% (ND)
- Related substances by HPLC: Δ9-Tetrahydrocannabinol (40° C./75% RH, 5 months): <0.02% (ND)
